Our source for the IC50 values is patent publication US5840918A, “Isoprenyl transferase inhibitors” (Eisai Co., Ltd., priority 1997, dated 1998).

Usually IC50 stands for the concentration needed to halve the response being measured.

Assay [1] addresses T1, FTase (Bos taurus, UniProt P29702+P49355).
T1 construct: bovine brain by inference from the cited Moores et al. 1991
Nature of the assay: Inhibition of FTase-mediated prenylation (in vitro prenylation assay). The note with it: Table 1; partially purified FTase, 3 μM recombinant H-ras, 440 nM [3H]FPP, 15 min 37° C. Format: biochemical. From the text:
(§1) Nanomolar concentrations of the indicated compounds were sufficient to inhibit farnesylation of ras proteins in vitro. For screening candidate compounds useful for the treatment of ras-associated tumors, the FTase assay is preferred. […] Substitutions which confer GGTase specificity as taught herein also produced potent inhibitors of GGTase.

The test system of assay [2] is H-ras farnesylation in H-ras (61L) transformed NIH3T3 fibroblasts. Nature of the assay: Inhibition of H-ras farnesylation in whole cells (Western blot). Type of assay: cell-based, mouse. The method, then: The ability of compounds of the invention to inhibit H-ras farnesylation and rap1 geranylgeranylation in whole cells was determined. H-ras (61L) transformed NIH3T3 fibroblasts were generously provided by C. Der, Univ. N. Carolina. These fibroblasts were treated for 24 h with 50 μM lovastatin (control) or the indicated concentrations of inhibitor. The cells were lysed in 1% NP-40, 5 mM Tris-HCl (pH 8.0), 5 mM EDTA, 0.1 mM N-tosyl-L-phenylalanine chloromethyl ketone, 0.1 mM N-tosyl-L-lysine chloromethyl ketone, and 1 mM phenylmethylsulfonyl fluoride. The lysate was centrifuged (15000×g, 5 min.) and the supernatant was used as a cell extract. […] After transfer to IMMOBILON P™ membrane (Millipore), the blots were probed with LA069 mouse monoclonal antibody to H-ras (Quality Biotech), or rabbit polyclonal antibody to rap1/Krev (Santa Cruz Biotechnology). All Western blots were developed using ECL chemiluminescent reagents (Amersham).

Assay [3] addresses GGTase. Nature of the assay: Inhibition of GGTase-mediated prenylation (in vitro prenylation assay). Type of assay: biochemical. The note with it: Table 1; partially purified GGTase, 5 μM recombinant H-ras (61L, CAIL), 1 μM [3H] geranylgeranyl diphosphate.
Text: as §1

The mark [4] stands for this setting: Mus musculus, NIH3T3, 24 h, Table 2.

Take `COC(=O)[C@H](CCSC)NC(=O)C(Cc1cccs1)N(C)C[C@@H](/C=C/C(N)CS)C(C)C` (stereo partly drawn) [PA131]: the results for the half-inhibitory concentration (IC50) in assay [1], in assay [2] (setting [4]) and in assay [3] were 28 nM, 39 nM and 1800 nM, respectively.

As for `CSCC[C@H](NC(=O)c1cc(C/C=C/C(N)CS)ccc1-c1ccccc1)C(N)=O` (stereo partly drawn) [PM081], the figures for the IC50 in assay [1], in assay [2] (setting [4]) and in assay [3] were 170 nM, 23400 nM and 1680 nM, respectively.

`COC(=O)[C@H](CCSC)NC(=O)c1cc(C/C=C/[C@@H](N)CS)ccc1-c1ccccc1` [PM041]: the IC50 in assay [1] was 180 nM; in assay [2] (setting [4]), 2300 nM; in assay [3] it was 1400 nM.

For `COC(=O)[C@H](CCS(C)(=O)=O)NC(=O)C(Cc1cccs1)NC[C@@H](/C=C/C(N)CS)C(C)C` (stereo partly drawn) [PA011], the figures for the IC50 in assay [1], in assay [2] (setting [4]) and in assay [3] were 140 nM, 100 nM and 11000 nM, respectively.

Regarding `CSCC[C@H](NC(=O)C(Cc1cccs1)N(C)C[C@@H](/C=C/C(N)CS)C(C)C)C(=O)O` (stereo partly drawn) [PA071], the results for the IC50 in assay [1], in assay [2] (setting [4]) and in assay [3] were 22 nM, 3100 nM and 500 nM, respectively.

On to `COC(=O)[C@H](CCS(C)(=O)=O)NC(=O)C(Cc1cccs1)N(C)C[C@@H](/C=C/C(N)CS)C(C)C` (stereo partly drawn) [PA021], for which the half-maximal inhibitory concentration (IC50) in assay [1] was determined as 28 nM; in assay [2] (setting [4]), 80 nM; in assay [3], 7100 nM.

Take `CSCC[C@H](NC(=O)C(/C=C\[C@@H](/C=C/C(N)CS)C(C)C)Cc1ccccc1)C(=O)O` (stereo partly drawn) [PD401]: the IC50 was 28 nM in assay [1], 100 to 1000 nM in assay [2] (setting [4]) and 1400 nM in assay [3].

Consider `CCOC(=O)C(CCSC)NC(=O)C(C=CC(C=CC(N)CS)Cc1ccccc1)C(C)C` (stereo not drawn) [PD421], for which the IC50 in assay [1] worked out at 570 nM; in assay [2] (setting [4]), 1900 nM; in assay [3], 3400 nM.

Regarding `CC(C)[C@@H](/C=C\C(Cc1ccccc1)C(=O)NC(CCC(N)=O)C(=O)O)/C=C/C(N)CS` (stereo partly drawn) [PD301], the IC50 in assay [1] worked out at 2 nM; in assay [2] (setting [4]) it was 4500 nM; in assay [3], 3.7 nM.

In the case of `CSCC[C@H](NC(=O)C(/C=C/[C@@H](/C=C/C(N)CS)C(C)(C)C)C(C)C)C(=O)O` (single isomer, unassigned) [PD152], the IC50 was 23 nM in assay [1], 320 nM in assay [2] (setting [4]) and 44 nM in assay [3].

In the case of `CSCCC(NC(=O)C(Cc1ccccc1)OCC(C=CC(N)CSSCC(N)C=CC(COC(Cc1ccccc1)C(=O)NC(CCSC)C(=O)O)C(C)C)C(C)C)C(=O)O` (stereo not drawn) [PE041], the IC50 in assay [1] worked out at 27 nM; in assay [2] (setting [4]), 190 nM; in assay [3] it was 160 nM.

In the case of `COc1ccc(-c2ccc(C/C=C/[C@@H](N)CS)cc2C(=O)N[C@@H](CCSC)C(=O)O)cc1` [PM011], the IC50 in assay [1] was 1130 nM; in assay [2] (setting [4]), over 100000 nM; in assay [3] it was 1600 nM.

In the case of `CSCC[C@H](NC(=O)c1cc(C/C=C/C(N)CS)ccc1C)C(=O)O` (stereo partly drawn) [PM112], the IC50 in assay [1] came out at 1.2 nM; in assay [2] (setting [4]), 4000 nM; in assay [3], 1660 nM.

For the compound `CSCCC(NC(=O)C(C=CC(C=CC(N)CSSCC(N)C=CC(C=CC(Cc1ccccc1)C(=O)NC(CCSC)C(=O)O)C(C)C)C(C)C)Cc1ccccc1)C(=O)O` (stereo not drawn) [PD212], the IC50 stood at 3 nM in assay [1], 110 nM in assay [2] (setting [4]) and 4.5 nM in assay [3].

`COC(=O)C(CCSC)NC(=O)C(Cc1ccccc1)OCC(C=CC(N)CSSCC(N)C=CC(COC(Cc1ccccc1)C(=O)NC(CCSC)C(=O)OC)C(C)C)C(C)C` (stereo not drawn) [PE051]: the IC50 in assay [1] came to 290 nM; in assay [2] (setting [4]), 110 nM; in assay [3], 2300 nM.

As to `CSCC[C@H](NC(=O)C(/C=C/[C@@H](/C=C/C(N)CS)C(C)C)C(C)C)C(=O)NCc1ccccn1` (stereo partly drawn) [PD192], the results for the IC50 in assay [1], in assay [2] (setting [4]) and in assay [3] were 296 nM, 180 nM and 2990 nM, respectively.

`CSCC[C@H](NC(=O)C(/C=C/[C@@H](/C=C/C(N)CS)C(C)(C)C)Cc1ccccc1)C(=O)O` (stereo partly drawn) [PD012]: the IC50 in assay [1] worked out at 38 nM; in assay [2] (Table 2, 24 h), 72000 nM; in assay [3], 620 nM.

Regarding `COC(=O)[C@H](CCSC)NC(=O)C(Cc1cccs1)NC[C@@H](/C=C/C(N)CS)C(C)C` (stereo partly drawn) [PA081], the IC50 in assay [1] turned out to be 102 nM; in assay [2] (setting [4]), 25 nM; in assay [3], 2660 nM.

Consider `COC(=O)[C@H](CCSC)NC(=O)C(Cc1ccccc1)OC[C@@H](/C=C/C(N)CS)C(C)C` (stereo partly drawn) [PE011], for which the IC50 in assay [1] was 43 nM; in assay [2] (setting [4]), 10 nM; in assay [3], 1030 nM.

As for `CSCC[C@H](NC(=O)C(/C=C/[C@@H](/C=C/C(N)CS)C(C)C)C(C)C)C(N)=O` (stereo partly drawn) [PD042], the IC50 is 5 nM in assay [1], 1950 nM in assay [2] (setting [4]) and 1620 nM in assay [3].

For the compound `CSCC[C@H](NC(=O)C(/C=C/[C@@H](/C=C/C(N)CS)C(C)C)C(C)C)C(=O)N1CCOCC1` (stereo partly drawn) [PD032], the IC50 was 450 nM in assay [1], 1950 nM in assay [2] (setting [4]) and 2860 nM in assay [3].

`CC[C@H](C)[C@H](NC[C@@H](/C=C/C(N)CS)C(C)C)C(=O)N[C@@H](CCSC)C(=O)OC` (stereo partly drawn) [PA141]: the IC50 in assay [1] was found to be 95 nM; in assay [2] (setting [4]), 17 nM; in assay [3], 880 nM.

As for `COC(=O)[C@H](CCSC)NC(=O)C(NC[C@@H](/C=C/C(N)CS)C(C)C)C(C)C` (stereo partly drawn) [PA101], the IC50 in assay [1] amounted to 170 nM; in assay [2] (setting [4]), 240 nM; in assay [3], 1300 nM.

With `COC(=O)[C@H](CCSC)NC(=O)C(Cc1ccccc1)SC[C@@H](/C=C/C(N)CS)C(C)C` (stereo partly drawn) [PT011], the IC50 was 43 nM in assay [1], 23 nM in assay [2] (setting [4]) and 638 nM in assay [3].

Take `CSCC[C@H](NC(=O)c1cc(C/C=C/C(N)CS)ccc1-c1cccc2ccccc12)C(=O)O` (stereo partly drawn) [PM082]: the IC50 came out at 30 nM in assay [1], 21000 nM in assay [2] (setting [4]) and 148 nM in assay [3].

For the compound `CSCC[C@H](NC(=O)c1cccc(C/C=C/C(N)CS)c1)C(=O)O` (stereo partly drawn) [PM102], the concentration for half-maximal inhibition (IC50) in assay [1] is 290 nM; in assay [2] (setting [4]), 26000 nM; in assay [3] it was 4850 nM.

For the compound `CSCC[C@H](NC(=O)C(/C=C/[C@@H](/C=C/C(N)CS)C(C)(C)C)Cc1ccccc1)C(=O)O` (stereo partly drawn) [PD182], the concentration for half-maximal inhibition (IC50) is under 1 nM in assay [1]; 2800 nM in assay [2] (Table 2, 24 h); 63.3 nM in assay [3].

As for `CSCC[C@H](NC(=O)C(/C=C/[C@H](C)/C=C/C(N)CS)Cc1ccccc1)C(=O)O` (stereo partly drawn) [PD441], the figures for the concentration for half-maximal inhibition (IC50) in assay [1], in assay [2] (setting [4]) and in assay [3] were 26 nM, 4200 nM and 170 nM, respectively.

On to `NC(/C=C/Cc1ccc(-c2ccccc2)c(C(=O)N[C@@H](CO)C(=O)O)c1)CS` (stereo partly drawn) [PM091], for which the results for the IC50 in assay [1], in assay [2] (setting [4]) and in assay [3] were 2 nM, 474000 nM and over 1000 nM, respectively.

With `COC(=O)[C@H](Cc1cccs1)NC(=O)c1cc(C/C=C/C(N)CS)ccc1-c1ccsc1` (stereo partly drawn) [PM092], the 50% inhibitory concentration (IC50) is 215 nM in assay [1], 2700 nM in assay [2] (setting [4]) and 3500 nM in assay [3].

Take `CSCC[C@H](NC(=O)c1cc(C/C=C/C(N)CS)ccc1-c1ccc(C(F)(F)F)cc1)C(=O)O` (stereo partly drawn) [PM071]: the values for the concentration for half-maximal inhibition (IC50) in assay [1], in assay [2] (setting [4]) and in assay [3] were 710 nM, over 100000 nM and 950 nM, respectively.

As for `COC(=O)[C@H](CCS(C)(=O)=O)NC(=O)c1cc(CCC[C@@H](N)CS)ccc1-c1ccsc1` [PM032], the values for the IC50 in assay [1], in assay [2] (setting [4]) and in assay [3] were 93 nM, 19500 nM and 6590 nM, respectively.

With `CSCC[C@H](NC(=O)c1cc(C/C=C/C(N)CS)ccc1-c1ccsc1)C(=O)O` (stereo partly drawn) [PM021], the values for the IC50 in assay [1], in assay [2] (setting [4]) and in assay [3] were 17 nM, 2100 nM and 75 nM, respectively.
